IC50 data for 33 molecules are collected here from patent US20230321100A1, “CD73 INHIBITOR AND APPLICATION THEREOF IN MEDICINE” (BETTA PHARMACEUTICALS CO., LTD, priority 2020, published 2023).

This experiment deals with T1, CD73 (Calu-6 cells) (Homo sapiens, UniProt P21589).
T1 construct: endogenous in cells; host or cells: Calu-6 cells
T1 sequence (P21589 27-549): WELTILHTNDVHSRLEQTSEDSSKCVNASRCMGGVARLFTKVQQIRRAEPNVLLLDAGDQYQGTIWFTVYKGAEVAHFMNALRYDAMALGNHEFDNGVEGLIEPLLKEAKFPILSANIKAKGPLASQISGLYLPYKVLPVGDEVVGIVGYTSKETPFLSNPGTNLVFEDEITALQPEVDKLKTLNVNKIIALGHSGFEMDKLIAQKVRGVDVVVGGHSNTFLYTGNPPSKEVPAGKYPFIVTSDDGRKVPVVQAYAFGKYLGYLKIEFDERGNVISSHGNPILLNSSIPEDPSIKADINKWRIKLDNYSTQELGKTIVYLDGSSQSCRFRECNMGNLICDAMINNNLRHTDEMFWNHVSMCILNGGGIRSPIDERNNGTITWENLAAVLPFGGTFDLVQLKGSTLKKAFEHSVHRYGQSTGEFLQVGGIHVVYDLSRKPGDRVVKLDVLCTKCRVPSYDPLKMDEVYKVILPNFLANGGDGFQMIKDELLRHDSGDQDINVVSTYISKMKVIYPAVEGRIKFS
As to the kind of experiment: Enzymatic activity detection at the cellular level (Calu-6 cells, AMP substrate, Cell-titer Glo luminescence). The following applies: enzymatic IC50 at the Calu-6 cell level, 30 min pre-incubation, 120 min at 37° C. Type of experiment: cell-based. The protocol: The Calu-6 cells were digested and re-suspended using TM buffer (25 mM Tris, 5 mM MgCl2, pH 7.5). Calu-6 cell suspension was seeded into 96 well cell culture plate, and the number of cells per well was 2.5×10^4, adding volume of 100 μL/well. Compound solution with gradient concentration was prepared by TM buffer, and 50 μL DMSO solution with different concentration was added into each pore cell. […] Pre-incubated in a shaker at 37° C. for 30 min. Each well was added with 50 μL 800 μM AMP solution. The shaker at 37° C. for 120 min was continued to incubate, then the 96-well plates were centrifuged and 50 μL supernatant was transferred to the new 96-well plates. […] The luminescence value was read by the multi-function enzymatic reader and converted into the inhibition percentage: Inhibition percentage=(1−reading/Max)*100. The “maximum value” was DMSO control. IC50 values were obtained by curve fitting with GraphPad Prism software.
What is called IC50 is the concentration needed to halve the response being measured. Lower therefore signals greater potency in that assay. The molecule `O=c1[nH]cc(-c2cc([C@H]3C[C@@H]3c3nc4ccccc4[nH]3)c(Cl)nn2)c(=O)[nH]1` [Compound 60, 5-(5-((1S,2S)-2-(1H-benzo[d]imidazol-2-yl)cyclopropyl)-6-chloropyridazin-3-yl)pyrimidine-2, 4(1H,3H)-dione] came in with an IC50 of 23.3 nM. `COc1nnc(-c2c[nH]c(=O)[nH]c2=O)cc1[C@H]1C[C@@H]1C#Cc1cccnc1` [Compound 53] showed an IC50 of 2.4 nM. Molecule `N#Cc1cccc(C2CC2c2cc(-c3c[nH]c(=O)[nH]c3=O)nnc2Cl)c1` (stereo not drawn) [Compound 26, 3-(2-(3-chloro-6-(2,4-dioxo-1,2,3,4-tetrahydropyrimidin-5-yl)pyridazin-4-yl)cyclopropyl)benzonitrile] registered an IC50 of 8.7 nM. `C=CC1CC1c1cc(-c2c[nH]c(=O)[nH]c2=O)nnc1C` (stereo not drawn) [Compound 6, 5-(6-methyl-5-(2-vinylcyclopropyl)pyridazin-3-yl)pyrimidine-2,4(1H,3H)-dione] had a half-inhibitory concentration (IC50) of 50.7 nM.

`O=c1[nH]cc(-c2cc(C3CC3c3cccc(C(F)(F)F)c3)c(Cl)nn2)c(=O)[nH]1` (stereo not drawn) [Compound 67] came in with an IC50 of 7.3 nM. `COc1cccc(C2CC2c2cc(-c3c[nH]c(=O)[nH]c3=O)nnc2Cl)c1` (stereo not drawn) [Compound 29, 5-(6-chloro-5-(2-(3-methoxyphenyl)cyclopropyl)pyridazin-3-yl)pyrimidine-2,4(1H,3H)-dione] gave an IC50 of 4.1 nM. Turning to `O=c1[nH]cc(-c2cc(C3CC3c3ccc(C(F)(F)F)cc3)c(Cl)nn2)c(=O)[nH]1` (stereo not drawn) [Compound 66], the IC50 was 3.9 nM. The molecule `C=C[C@H]1C[C@@H]1c1cc(-c2c[nH]c(=O)[nH]c2=O)nnc1C` [Compound 7, 5-(6-methyl-5-((1S,2R)-2-vinylcyclopropyl)pyridazin-3-yl)pyrimidine-2,4(1H,3H)-dione] registered an IC50 of 21 nM. Regarding `O=c1[nH]cc(-c2cc(C3CC3c3ccc(F)cc3F)c(Cl)nn2)c(=O)[nH]1` (stereo not drawn) [Compound 71], half-maximal inhibition (IC50) was put at 4.6 nM. Consider `C=C[C@H]1C[C@@H]1c1cc(-c2c[nH]c(=O)[nH]c2=O)nnc1OC` [Compound 39, 5-(6-methoxy-S-((1S,2R)-2-vinylcyclopropyl)pyridazin-3-yl)pyrimidine-2,4(1H,3H)-dione], for which the IC50 came to 2.5 nM. As for `COc1nnc(-c2c[nH]c(=O)[nH]c2=O)cc1[C@H]1C[C@@H]1C#Cc1ccccn1` [Compound 52], the IC50 came out at 5.8 nM.

With `N#Cc1ccc(C2CC2c2cc(-c3c[nH]c(=O)[nH]c3=O)nnc2C#N)cc1` (stereo not drawn) [Compound 78, 4-(2-(4-cyanophenyl)cyclopropyl)-6-(2,4-dioxo-1,2,3,4-tetrahydropyrimidin-5-yl)pyridazine-3-carbonitrile], the midpoint of inhibition, the IC50, lay at 8.5 nM. With `O=c1[nH]cc(-c2cc(C3CC3c3ccc(F)cc3)c(Cl)nn2)c(=O)[nH]1` (stereo not drawn) [Compound 27, 5-(6-chloro-5-(2-(4-fluorophenyl)cyclopropyl)pyridazin-3-yl)pyrimidine-2,4(1H,3H)-dione], the half-maximal inhibitory concentration (IC50) was found to be 1.8 nM. Next, `O=c1[nH]cc(-c2cc([C@H]3C[C@@H]3C#Cc3ccccn3)c(Cl)nn2)c(=O)[nH]1` [Compound 43]: 3.7 nM; `O=c1[nH]cc(-c2cc(C3CC3c3ccc(Cl)cc3)c(Cl)nn2)c(=O)[nH]1` (stereo not drawn) [Compound 28, 5-(6-chloro-5-(2-(4-chlorophenyl)cyclopropyl)pyridazin-3-yl)pyrimidine-2,4(1H,3H)-dione]: 2.7 nM.

Take `N#Cc1ccc(/C=C/[C@H]2C[C@@H]2c2cc(-c3c[nH]c(=O)[nH]c3=O)nnc2Cl)cc1` [Compound 17, 4-((E)-2-((1R,2S)-2-(3-chloro-6-(2,4-dioxo-1,2,3,4-tetrahydropyrimidin-5-yl)pyridazin-4-yl)cyclopropyl)vinyl)benzonitrile]: the IC50 was 2.3 nM. Molecule `O=Cc1ccc(C2CC2c2cc(-c3c[nH]c(=O)[nH]c3=O)nnc2Cl)cc1` (stereo not drawn) [Compound 74] had an IC50 of 2.7 nM. Consider `COc1ccc(C#C[C@H]2C[C@@H]2c2cc(-c3c[nH]c(=O)[nH]c3=O)nnc2Cl)cc1` [Compound 44], for which the half-maximal inhibitory concentration (IC50) came out at 3.1 nM. With `O=c1[nH]cc(-c2cc([C@H]3C[C@@H]3C#Cc3ccncc3)c(Cl)nn2)c(=O)[nH]1` [Compound 37, 5-(6-chloro-5-((1S,2S)-2-(pyridin-4-ylethynyl)cyclopropyl)pyridazin-3-yl)pyrimidine-2,4(1H, 3H)-dione], the midpoint of inhibition, the IC50, lay at 1.2 nM. In the case of `Cc1ccc(C2CC2c2cc(-c3c[nH]c(=O)[nH]c3=O)nnc2Cl)cc1` (stereo not drawn) [Compound 24, 5-(6-chloro-S-(2-(p-tolyl)cyclopropyl)pyridazin-3-yl)pyrimidine-2,4(1H,3H)-dione], the 50% inhibitory concentration (IC50) is 5.2 nM. In the case of `O=c1[nH]cc(-c2cc(C3CC3c3ccccc3)c(Cl)nn2)c(=O)[nH]1` (stereo not drawn) [Compound 23, 5-(6-chloro-5-(2-phenylcyclopropyl)pyridazin-3-yl)pyrimidine-2,4(1H,3H)-dione], the IC50 was determined as 1.4 nM. As for `N#Cc1ccc(C2CC2c2cc(-c3c[nH]c(=O)[nH]c3=O)nnc2Cl)cc1` (stereo not drawn) [Compound 25, 4-(2-(3-chloro-6-(2,4-dioxo-1,2,3,4-tetrahydropyrimidin-5-yl)pyridazin-4-yl)cyclopropyl)benzonitrile], half-maximal inhibition (IC50) required 1.8 nM. In the case of `COc1nnc(-c2c[nH]c(=O)[nH]c2=O)cc1C1CC1c1ccccc1` (stereo not drawn) [Compound 31, 5-(6-methoxy-5-(2-phenylcyclopropyl)pyridazin-3-yl)pyrimidine-2,4(1H,3H)-dione], the IC50 turned out to be 4.2 nM. As for `N#Cc1nnc(-c2c[nH]c(=O)[nH]c2=O)cc1[C@H]1C[C@@H]1C#Cc1ccccn1` [Compound 56], the IC50 stood at 19.4 nM.

As to `O=c1[nH]cc(-c2cc(C3CC3c3cccc4ccccc34)c(Cl)nn2)c(=O)[nH]1` (stereo not drawn) [Compound 30, 5-(6-chloro-S-(2-(naphthalen-1yl)cyclopropyl)pyridazin-3-yl)pyrimidine-2,4(1H,3H)-dione], the IC50 is 60 nM. Molecule `O=C(O)c1cccc(C2CC2c2cc(-c3c[nH]c(=O)[nH]c3=O)nnc2Cl)c1` (stereo not drawn) [Compound 75] displayed a 50% inhibitory concentration (IC50) of 32 nM. Next, `Cc1ccc(C2CC2c2cc(-c3c[nH]c(=O)[nH]c3=O)nnc2Cl)cc1F` (stereo not drawn) [Compound 65]: 4.7 nM; `N#Cc1ccc(C#C[C@H]2C[C@@H]2c2cc(-c3c[nH]c(=O)[nH]c3=O)nnc2C#N)cc1` [Compound 55]: 5.6 nM.

In the case of `O=c1[nH]cc(-c2cc([C@H]3C[C@@H]3C#Cc3cccnc3)c(Cl)nn2)c(=O)[nH]1` [Compound 42], the concentration for half-maximal inhibition (IC50) is 4.4 nM.

Molecule `N#Cc1ccccc1C#C[C@H]1C[C@@H]1c1cc(-c2c[nH]c(=O)[nH]c2=O)nnc1Cl` [Compound 46] gave an IC50 of 4.4 nM. With `Cc1nnc(-c2c[nH]c(=O)[nH]c2=O)cc1C1CC1c1ccccc1` (stereo not drawn) [Compound 22, 5-(6-methyl-5-(2-phenylcyclopropyl)pyridazin-3-yl)pyrimidine-2,4(1H,3H)-dione], the half-inhibitory concentration (IC50) stood at 22.7 nM. Regarding `CC(C)c1ccc(C2CC2c2cc(-c3c[nH]c(=O)[nH]c3=O)nnc2Cl)cc1` (stereo not drawn) [Compound 64], half-maximal inhibition (IC50) was put at 22.3 nM. As to `Cc1nnc(-c2c[nH]c(=O)[nH]c2=O)cc1[C@H]1C[C@@H]1/C=C/C1CC1` [Compound 9, 5-(5-((1S,2R)-2-((E)-2-cyclopropylvinyl)cyclopropyl)-6-methylpyridazin-3-yl)pyrimidine-2,4(1H,3H)-dione], the IC50 turned out to be 200 nM.
